# Results from ChEMBL document CHEMBL5104172, “Design, synthesis, and antibacterial activity of derivatives of Tryptophanyl-tRNA synthetase inhibitor indolmycin” (Eur J Med Chem, 2022).
# What was measured:
# Assay type in all cases: functional
# [1] = test system: Staphylococcus epidermidis; assay: Antibacterial activity against methicillin-resistant Staphylococcus epidermidis MRSE17-2 measured by liquid dilution method
# [2] = test system: Staphylococcus epidermidis; assay: Antibacterial activity against methicillin-sensitive Staphylococcus epidermidis MSSE17-2 measured by liquid dilution method
# [3] = test system: Staphylococcus aureus; assay: Antibacterial activity against methicillin-sensitive Staphylococcus aureus MSSA17-1 measured by liquid dilution method
# [4] = test system: Staphylococcus aureus; assay: Antibacterial activity against methicillin-resistant Staphylococcus aureus MRSA17-2 measured by liquid dilution method
# [5] = test system: Staphylococcus epidermidis; assay: Antibacterial activity against methicillin-resistant Staphylococcus epidermidis MRSE17-4 measured by liquid dilution method
# [6] = test system: Enterococcus faecalis; assay: Antibacterial activity against Enterococcus faecalis ATCC 29212 measured by liquid dilution method
# [7] = test system: Staphylococcus aureus; assay: Antibacterial activity against methicillin-resistant Staphylococcus aureus MRSA17-1 measured by liquid dilution method
# [8] = test system: Staphylococcus aureus; assay: Antibacterial activity against Staphylococcus aureus ATCC 29213 measured by liquid dilution method
# [9] = test system: Staphylococcus epidermidis; assay: Antibacterial activity against methicillin-resistant Staphylococcus epidermidis MRSE17-3 measured by liquid dilution method
# [10] = test system: Staphylococcus aureus; assay: Antibacterial activity against methicillin-resistant Staphylococcus aureus ATCC 33591 measured by liquid dilution method
# [11] = test system: Enterococcus faecalis; assay: Antibacterial activity against Enterococcus faecalis EFA17-1 measured by liquid dilution method
# [12] = test system: Staphylococcus aureus; assay: Antibacterial activity against methicillin-sensitive Staphylococcus aureus MSSA17-3 measured by liquid dilution method
# [13] = test system: Enterococcus faecium; assay: Antibacterial activity against Enterococcus faecium EFM17-2 measured by liquid dilution method
# [14] = test system: Staphylococcus aureus; assay: Antibacterial activity against methicillin-sensitive Staphylococcus aureus MSSA17-2 measured by liquid dilution method
# [15] = test system: Staphylococcus aureus; assay: Antibacterial activity against vancomycin-intermediate Staphylococcus aureus ATCC 700699 measured by liquid dilution method
# [16] = test system: Staphylococcus epidermidis; assay: Antibacterial activity against methicillin-sensitive Staphylococcus epidermidis MSSE17-3 measured by liquid dilution method
# [17] = test system: Staphylococcus aureus; assay: Antibacterial activity against vancomycin-intermediate Staphylococcus aureus ATCC 700788 measured by liquid dilution method
# [18] = test system: Staphylococcus epidermidis; assay: Antibacterial activity against methicillin-sensitive Staphylococcus epidermidis MSSE17-1 measured by liquid dilution method
# [19] = test system: Staphylococcus aureus; assay: Antibacterial activity against methicillin-resistant Staphylococcus aureus MRSA17-6 measured by liquid dilution method
# [20] = test system: Enterococcus faecium; assay: Antibacterial activity against Enterococcus faecium EFM17-1 measured by liquid dilution method
# [21] = test system: Staphylococcus aureus; assay: Antibacterial activity against methicillin-resistant Staphylococcus aureus ATCC 43300 measured by liquid dilution method
# [22] = test system: Staphylococcus epidermidis; assay: Antibacterial activity against methicillin-resistant Staphylococcus epidermidis MRSE17-1 measured by liquid dilution method
# [23] = test system: Staphylococcus aureus; assay: Antibacterial activity against methicillin-resistant Staphylococcus aureus MRSA17-5 measured by liquid dilution method
# [24] = test system: Staphylococcus epidermidis; assay: Antibacterial activity against methicillin-resistant Staphylococcus epidermidis MRSE17-6 measured by liquid dilution method
# [25] = test system: Staphylococcus aureus; assay: Antibacterial activity against methicillin-resistant Staphylococcus aureus MRSA17-3 measured by liquid dilution method
# [26] = test system: Escherichia coli; assay: Antibacterial activity against Escherichia coli ATCC 25922 measured by liquid dilution method
# [27] = test system: Staphylococcus aureus; assay: Antibacterial activity against methicillin-resistant Staphylococcus aureus NRS384 measured by liquid dilution method
structure (smiles),measurement,setting,value
CNC1=NC(=O)[C@@H]([C@@H](C)c2c[nH]c3cccc(F)c23)O1,MIC,[1],> 128 µg/mL
same,MIC,[2],> 128 µg/mL
same,MIC,[3],> 128 µg/mL
same,MIC,[4],> 128 µg/mL
same,MIC,[5],> 128 µg/mL
same,MIC,[6],> 128 µg/mL
same,MIC,[7],> 128 µg/mL
same,MIC,[8],> 128 µg/mL
same,MIC,[9],> 128 µg/mL
same,MIC,[10],> 128 µg/mL
same,MIC,[11],> 128 µg/mL
same,MIC,[12],> 128 µg/mL
same,MIC,[13],> 128 µg/mL
same,MIC,[14],> 128 µg/mL
same,MIC,[15],> 128 µg/mL
same,MIC,[16],> 128 µg/mL
same,MIC,[17],> 128 µg/mL
same,MIC,[18],> 128 µg/mL
same,MIC,[19],> 128 µg/mL
same,MIC,[20],> 128 µg/mL
same,MIC,[21],> 128 µg/mL
same,MIC,[22],> 128 µg/mL
same,MIC,[23],> 128 µg/mL
same,MIC,[24],> 128 µg/mL
same,MIC,[25],> 128 µg/mL
CNC1=NC(=O)[C@@H]([C@@H](C)c2c[nH]c3cccc(Cl)c23)O1,MIC,[1],128 µg/mL
same,MIC,[2],> 128 µg/mL
same,MIC,[3],64 µg/mL
same,MIC,[4],64 µg/mL
same,MIC,[5],64 µg/mL
same,MIC,[6],> 128 µg/mL
same,MIC,[7],64 µg/mL
same,MIC,[8],64 µg/mL
same,MIC,[9],> 128 µg/mL
same,MIC,[10],64 µg/mL
same,MIC,[11],> 128 µg/mL
same,MIC,[12],64 µg/mL
same,MIC,[13],> 128 µg/mL
same,MIC,[14],64 µg/mL
same,MIC,[15],> 128 µg/mL
same,MIC,[16],> 128 µg/mL
same,MIC,[17],128 µg/mL
same,MIC,[18],> 128 µg/mL
same,MIC,[19],64 µg/mL
same,MIC,[20],> 128 µg/mL
same,MIC,[21],64 µg/mL
same,MIC,[22],128 µg/mL
same,MIC,[23],64 µg/mL
same,MIC,[24],64 µg/mL
same,MIC,[25],64 µg/mL
CNC1=NC(=O)[C@@H]([C@@H](C)c2c[nH]c3ccccc23)O1,MIC,[1],> 128 µg/mL
same,MIC,[2],> 128 µg/mL
same,MIC,[3],> 128 µg/mL
same,MIC,[4],> 128 µg/mL
same,MIC,[5],> 128 µg/mL
same,MIC,[6],> 128 µg/mL
same,MIC,[7],> 128 µg/mL
same,MIC,[8],> 128 µg/mL
same,MIC,[9],> 128 µg/mL
same,MIC,[10],> 128 µg/mL
same,MIC,[11],> 128 µg/mL
same,MIC,[12],> 128 µg/mL
same,MIC,[13],> 128 µg/mL
same,MIC,[14],> 128 µg/mL
same,MIC,[15],> 128 µg/mL
same,MIC,[16],> 128 µg/mL
same,MIC,[17],> 128 µg/mL
same,MIC,[18],> 128 µg/mL
same,MIC,[19],> 128 µg/mL
same,MIC,[20],> 128 µg/mL
same,MIC,[21],> 128 µg/mL
same,MIC,[22],> 128 µg/mL
same,MIC,[23],> 128 µg/mL
same,MIC,[24],> 128 µg/mL
same,MIC,[25],> 128 µg/mL
CNC1=NC(=O)C(C(C)c2c[nH]c3ccccc23)S1 (racemic),MIC,[26],> 128 µg/mL
same,MIC,[8],4 µg/mL
same,MIC,[27],> 128 µg/mL
CNC1=NC(=O)C(C(C)c2c[nH]c3cccc(Cl)c23)O1 (racemic),MIC,[26],128 µg/mL
same,MIC,[8],1 µg/mL
same,MIC,[27],2 µg/mL
CNC1=NC(=O)C(C(C)c2c[nH]c3ccccc23)O1 (racemic),MIC,[26],1 µg/mL
same,MIC,[8],1 µg/mL
same,MIC,[27],1 µg/mL
CNC1=NC(=O)C(C(C)c2c[nH]c3cccc(N4CCCC4)c23)O1 (racemic),MIC,[26],> 128 µg/mL
same,MIC,[8],128 µg/mL
same,MIC,[27],> 128 µg/mL
CNC1=NC(=O)C(C(C)c2c[nH]c3cccc(F)c23)S1 (racemic),MIC,[26],> 128 µg/mL
same,MIC,[8],8 µg/mL
same,MIC,[27],> 128 µg/mL
CNC1=NC(=O)C(C(C)c2c[nH]c3c(F)cccc23)O1 (racemic),MIC,[26],16 µg/mL
same,MIC,[8],8 µg/mL
same,MIC,[27],8 µg/mL
CNC1=NC(=O)C(C(C)c2c[nH]c3cc(Br)ccc23)O1 (racemic),MIC,[26],4 µg/mL
same,MIC,[8],> 128 µg/mL
same,MIC,[27],16 µg/mL
CNC1=NC(=O)C(C(C)c2c[nH]c3c(Br)cccc23)O1 (racemic),MIC,[26],> 128 µg/mL
same,MIC,[8],> 128 µg/mL
same,MIC,[27],> 128 µg/mL
CNC1=NC(=O)C(C(C)c2c[nH]c3cccc(Cl)c23)S1 (racemic),MIC,[26],> 128 µg/mL
same,MIC,[8],8 µg/mL
same,MIC,[27],> 128 µg/mL
CNC1=NC(=O)C(C(C)c2c[nH]c3ccc(C)cc23)O1 (racemic),MIC,[26],> 128 µg/mL
same,MIC,[8],> 128 µg/mL
same,MIC,[27],> 128 µg/mL
CC(c1c[nH]c2cccc(F)c12)C1OC(N)=NC1=O (racemic),MIC,[26],> 128 µg/mL
same,MIC,[8],16 µg/mL
same,MIC,[27],> 128 µg/mL
CNC1=NC(=O)C(C(C)c2c[nH]c3ccc(Br)cc23)O1 (racemic),MIC,[26],4 µg/mL
same,MIC,[8],> 128 µg/mL
same,MIC,[27],64 µg/mL
CC(c1c[nH]c2cccc(F)c12)C1SC(N)=NC1=O (racemic),MIC,[26],> 128 µg/mL
same,MIC,[8],16 µg/mL
same,MIC,[27],> 128 µg/mL
CNC1=NC(=O)C(C(C)c2c[nH]c3cc(C)ccc23)O1 (racemic),MIC,[26],16 µg/mL
same,MIC,[8],> 128 µg/mL
same,MIC,[27],8 µg/mL
CC(c1c[nH]c2ccccc12)C1OC(N)=NC1=O (racemic),MIC,[26],> 128 µg/mL
same,MIC,[8],8 µg/mL
same,MIC,[27],> 128 µg/mL
CNC1=NC(=O)C(C(C)c2c[nH]c3cccc(Br)c23)S1 (racemic),MIC,[26],> 128 µg/mL
same,MIC,[8],16 µg/mL
same,MIC,[27],> 128 µg/mL
CNC1=NC(=O)C(C(C)c2c[nH]c3ccc(N4CCCCC4)cc23)O1 (racemic),MIC,[26],> 128 µg/mL
same,MIC,[8],> 128 µg/mL
same,MIC,[27],> 128 µg/mL
CNC1=NC(=O)C(C(C)c2c[nH]c3c(C)cccc23)O1 (racemic),MIC,[26],> 128 µg/mL
same,MIC,[8],> 128 µg/mL
same,MIC,[27],> 128 µg/mL
CNC1=NC(=O)C(C(C)c2c[nH]c3cccc(Br)c23)O1 (racemic),MIC,[26],> 128 µg/mL
same,MIC,[8],4 µg/mL
same,MIC,[27],> 128 µg/mL
CNC1=NC(=O)C(C(C)c2c[nH]c3cccc(O)c23)O1 (racemic),MIC,[26],> 128 µg/mL
same,MIC,[8],> 128 µg/mL
same,MIC,[27],8 µg/mL
CNC1=NC(=O)C(C(C)c2c[nH]c3cccc(OCc4ccccc4)c23)O1 (racemic),MIC,[26],> 128 µg/mL
same,MIC,[8],> 128 µg/mL
same,MIC,[27],> 128 µg/mL
CNC1=NC(=O)C(C(C)c2c[nH]c3ccc(F)cc23)O1 (racemic),MIC,[26],128 µg/mL
same,MIC,[8],32 µg/mL
same,MIC,[27],64 µg/mL
CNC1=NC(=O)C(C(C)c2c[nH]c3cccc(OC)c23)O1 (racemic),MIC,[26],16 µg/mL
same,MIC,[8],128 µg/mL
same,MIC,[27],> 128 µg/mL
CNC1=NC(=O)C(C(C)c2c[nH]c3cccc(C)c23)S1 (racemic),MIC,[26],> 128 µg/mL
same,MIC,[8],4 µg/mL
same,MIC,[27],> 128 µg/mL
CC(c1c[nH]c2ccccc12)C1SC(N)=NC1=O (racemic),MIC,[26],> 128 µg/mL
same,MIC,[8],8 µg/mL
same,MIC,[27],> 128 µg/mL
CNC1=NC(=O)C(C(C)c2c[nH]c3cccc(F)c23)O1 (racemic),MIC,[26],4 µg/mL
same,MIC,[8],1 µg/mL
same,MIC,[27],1 µg/mL
CNC1=NC(=O)C(C(C)c2c[nH]c3cccc(N4CCCCC4)c23)O1 (racemic),MIC,[26],> 128 µg/mL
same,MIC,[8],64 µg/mL
same,MIC,[27],> 128 µg/mL
CCN(CC)c1cccc2[nH]cc(C(C)C3OC(NC)=NC3=O)c12 (racemic),MIC,[26],> 128 µg/mL
same,MIC,[8],64 µg/mL
same,MIC,[27],> 128 µg/mL
CNC1=NC(=O)C(C(C)c2c[nH]c3cc(F)ccc23)O1 (racemic),MIC,[26],8 µg/mL
same,MIC,[8],16 µg/mL
same,MIC,[27],8 µg/mL
CNC1=NC(=O)C(C(C)c2c[nH]c3cccc(C)c23)O1 (racemic),MIC,[26],32 µg/mL
same,MIC,[8],2 µg/mL
same,MIC,[27],> 128 µg/mL
CN[C@H](CC(C)C)C(=O)N[C@H]1C(=O)N[C@@H](CC(N)=O)C(=O)N[C@H]2C(=O)N[C@H]3C(=O)N[C@H](C(=O)N[C@H](C(=O)O)c4cc(O)cc(O)c4-c4cc3ccc4O)[C@H](O)c3ccc(c(Cl)c3)Oc3cc2cc(c3O[C@@H]2O[C@H](CO)[C@@H](O)[C@H](O)[C@H]2O[C@H]2C[C@](C)(N)[C@H](O)[C@H](C)O2)Oc2ccc(cc2Cl)[C@H]1O [VANCOMYCIN],MIC,[11],2 µg/mL
same,MIC,[15],8 µg/mL
